According to patent US4689345A, “Oxygenated alkyl substituted bicyclo alkanes” (CBD Corporation, priority 1986, dated 1987):
“Also recorded” adds a separate entry of the source.

What was measured:
human fibroblast cells [1] = assay: Elastin production by fibroblast cells; assay type: cell-based
Description: (§1) Experiments generally following the methodology of Boote et al., Biochimica et Biophysica Acta, Volume 607, pages 145-160 (1980), have shown that while control human fibroblast cells have copious collagen production, treatment with the compounds of the invention provides human fibroblast cells with suppressed collagen production and with an about 30% increase in elastin production over control cells.
(§2) Wrinkling of the skin involves the decreased formation of elastin and the increased formation of collagen by supporting cells, predominantly the fibroblasts.

human fibroblast cells [2] = assay: Collagen production by fibroblast cells; assay type: cell-based; conditions: treated vs control cells
Description: as §1, §2

[3] = tested on: estrogen receptor (keloid cytosol); assay: Keloid cytosol steroid binding assay, estrogen; design: species or system human

`CCOC(CC)CCCCC1CCC2CC(=O)CC12` (stereo not drawn) [Compound VI, 2-(5-ethoxyhept-1-yl)bicyclo[3.3.0]octan-7-one] was tested, and the formation of elastin (human fibroblast cells [1]; Example 45) was “massive observable increase in the formation of elastin”, the “increase in elastin production over control cells” value (human fibroblast cells [1]; treated vs control (non-treated) fibroblast cells) was ~30% and the collagen production/formation (human fibroblast cells [2]) was “decrease in collagen production; also recorded: decreased”.
For Estrogen, the “estrogen binding, male patients” value ([3]; male patients) was “neither detectable”, the “Binding of Estrogen” value ([3]; patient 1) was 9 and the “Binding of Estrogen” value ([3]; patient 2) was 4.
